From paper PMC8206213, “An L-2-hydroxyglutarate biosensor based on specific transcriptional regulator LhgR” (Nature Communications, 2021)
Where “and” joins values, the source holds several entries; their conditions need not be identical. Equal values may be shown once.

Columns and labels:
LHGFR0N7C [1] = assay: Influence of other compounds on the response of purified LHGFR0N7C to L-2-HG; format: binding, Pseudomonas putida W619; details: Suppl. Fig. 9b; L-2-HG alone or with the compound; three replicates
Experimental: (§1) Purified L-2-HG biosensors and different compounds were diluted by 50 mM Tris-HCl buffer (pH 7.4), mixed together in a black 96-well plate at a volume ratio of 3:1, and the fluorescence intensities were measured using an EnSight microplate reader (PerkinElmer, USA) with excitation at 430 nm, emission at 485 nm (mTFP) and 528 nm (Venus). […] The [L-2-HG], Kd, and p refer to the L-2-HG concentration, apparent dissociation constant, and Hill slope, respectively. Emission spectra were recorded at 430 nm excitation, in steps of 2 nm. Excitation spectra were recorded using emission at 550 nm, excitation from 380 to 535 nm in steps of 2 nm.

[2] = test system: LHGFR0N3C expressed in E. coli BL21(DE3); assay: Specificity of LHGFR0N3C expressed in E. coli BL21(DE3), 1 mM compounds; format: cell-based; details: for Emission ratio: 1 mM compound, Fig. 5c
Experimental: (§2) To characterize the sensitivity and specificity of LHGFR expressed in E. coli BL21(DE3), 90 μL cell suspensions following 8 h carbon starvation were mixed with 10 μL increasing concentrations of L-2-HG or other compounds, and then added into a black 96-well plate (total 100 μL/per well), the fluorescence intensities were determined using an EnSight microplate reader (PerkinElmer, USA) and the following instrument settings: excitation at 430 nm, emission at 485 nm (mTFP) and 528 nm (Venus), time intervals of 5 min, the temperature at 37 °C, and shake at 180 rpm.

LhgR = assay: EMSA, effect of compounds on LhgR binding to the lhgO promoter region F1; set-up: species or system Pseudomonas putida W619; details: 50 mM compound, 10 nM F1, 60 nM LhgR
Experimental: Electrophoretic mobility shift assays (EMSAs) were carried out using the DNA fragment (F1 or F2) and purified LhgR. The DNA fragments were first amplified by primer pairs F1-F/F1-R and F2-F/F2-R, respectively. Then, either fragment at a concentration of 10 nM DNA was incubated with LhgR (0–160 nM) in 20 μL EMSA binding buffer (10 mM Tris-HCl [pH 7.4], 50 mM KCl, 0.5 mM EDTA, 10% [vol/vol] glycerol, and 1 mM dithiothreitol [DTT]). The binding reactions were carried out at 30 °C for 30 min. Electrophoresis was performed on 6% native polyacrylamide gels at 4 °C and 170 V (constant voltage) for about 45 min, followed by staining with SYBR green I (TaKaRa, China) and photographing. Analysis of the interaction between lhgO promoter region (F1) and LHGFR was performed using the same procedure.
To characterize the effector of LhgR, purified LhgR was first incubated with L-lysine, 5-aminovalerate, glutarate, L-2-HG, D-2-HG, 2-KG, or succinate at 30 °C for 15 min, followed by incubation with the added DNA fragments at 30 °C for 30 min. The mixtures were subsequently subjected to electrophoresis.

LhgO = assay: Enzymatic assay of LhgO in crude extracts of P. putida KT2440 derivatives grown on different carbon sources (induction of lhgO under LhgR control); format: cell-based, Pseudomonas putida
Experimental: The cells were harvested at mid-log phase, washed twice and resuspended in phosphate-buffered saline (PBS), then lysed by sonication on ice after the addition of 1 mM phenylmethylsulfonyl fluoride (PMSF). […] Protein concentrations of the supernatants were determined using the Bradford protein assay kit (Sangon, China). […] The 800 μL reaction solution contained 0.1 mM […], 0.05 mM DCPIP, 0.2 mM phenazine methosulfate (PMS) in PBS and 40 μL crude extracts.

LHGFR0N7C [3] = assay: Specificity of purified LHGFR0N7C, emission ratio with 240 μM compounds; format: binding, Pseudomonas putida W619; details: 240 μM compound
Experimental: as §1

[4] = test system: LHGFR3N7C expressed in E. coli BL21(DE3); assay: Control biosensor LHGFR3N7C expressed in E. coli, response to added compounds; format: cell-based; details: Supplementary Fig. 14a
Experimental: as §2

LHGFR0N3C = assay: Specificity of purified LHGFR0N3C, emission ratio with 240 μM compounds; format: binding, Pseudomonas putida W619; details: 240 μM compound
Experimental: as §1

[5] = test system: LHGFR0N7C expressed in HEK293FT cells; assay: Specificity of LHGFR0N7C expressed in permeabilized HEK293FT cells, 1 mM compounds; format: cell-based, human (HEK293FT cells); details: Supplementary Fig. 17d; Control about 1
Experimental: To characterize the sensitivity and specificity of LHGFR expressed in HEK293FT cells, cells were trypsinized 48 h following transfection and suspended in 1× Hank’s balanced salt solution supplemented with 20 mM HEPES. […] Digitonin at a concentration of 10 μM was used to induce cell permeabilization and deplete intracellular L-2-HG for in vivo response curves construction. Then, the fluorescence intensities were determined by a SpectraMax i3 fluorescence plate reader (Molecular Devices, USA) with excitation at 430 nm and emission at 485 nm (mTFP) and 528 nm (Venus). Basal L-2-HG concentration in HEK293FT cells under physiological conditions was determined by substituting the emission ratios of non-permeabilized HEK293FT cells into the calibrated in vivo response curves.

With `O=C(O)CCCC(=O)O` [Glutarate, glutarate] the Emission ratio (LHGFR0N7C [1]) was 2.576 and 2.574 and 2.627, the Emission ratio ([2]; 0 min) was 1.019 and 1.014 and 1.009 and the Emission ratio ([2]; 5 min) was 1.014 and 1.015 and 0.998. For the same molecule, the Emission ratio ([2]; 10 min) was 1.024 and 1.012 (2×), the Emission ratio ([2]; 15 min) was 1.024 and 1.01 and 1.013 and the Emission ratio ([2]; 20 min) was 1.025 and 1.007 and 1.004. For the same molecule, the Emission ratio ([2]; 25 min) was 1.02 and 1.008 and 1.012, the Emission ratio ([2]; 30 min) was 1.022 and 1.0136 and 1.013 and the Emission ratio ([2]; 35 min) was 1.0109 and 1.008 and 1.004. For the same molecule, the Emission ratio ([2]; 40 min) was 1.017 and 1.002 and 1.012, the Emission ratio ([2]; 45 min) was 1.022 and 1.0116 and 1.014 and the Emission ratio ([2]; 50 min) was 1.01 and 1 and 1.016. The Emission ratio ([2]; 55 min) was 1.008 and 1.012 and 1.02, the Emission ratio ([2]; 60 min) was 1.014 and 1.01 and 1.011 and the Emission ratio ([2]; 65 min) was 1.021 and 1.007 and 1.017. For the same molecule, the Emission ratio ([2]; 70 min) was 1.032 and 1.006 and 1.011, the Emission ratio ([2]; 75 min) was 1.016 and 1.008 and 1.028 and the Emission ratio ([2]; 80 min) was 0.9989 and 1.018 and 1.024. The Emission ratio ([2]; 85 min) was 1.011 and 1.013 and 1.026, the Emission ratio ([2]; 90 min) was 1.005 and 1.016 and 1.027 and the “Increase of the emission ratio in E. coli BL21(DE3)” value ([2]; 1 mM exogenous compound) was “could not”. The “Effect on LhgR binding to the lhgO promoter region F1” value (LhgR) was “observed only in the presence of L-2-HG”, the LhgO activity (LhgO; crude extract of DcsiRDcsiDDlhgO-pME6032-F2-lhgR-F1-lhgO grown with the compound as sole carbon source) was “no activity of LhgO was detected” and the LhgO activity (LhgO; crude extract of DcsiRDlhgO-pME6032-F2-lhgR-F1-lhgO grown with the compound as sole carbon source) was 0.02427 and 0.01721 and 0.01877. The LhgO activity (LhgO; crude extract of DcsiRDlhgO-pME6032-F2-lhgR-F1-lhgO grown with the compound as sole carbon source, listed as glutarate) was “activity of LhgO was also detected”, the LhgO activity (LhgO; crude extract of DcsiRDlhgO-pME6032 grown in MSM with the compound as sole carbon source) was 7.09E-04 and 9.66E-04 and 0.00113 and the “Induction of lhgO expression / effector molecule of LhgR” value (LhgO; gene segment F2-lhgR-F1-lhgO in P. putida KT2440 derivatives) was “neither D-2-HG nor glutarate can serve as the effector molecule of LhgR”. The Emission ratio (LHGFR0N7C [3]) was 1.71 (2×) and 1.717, the “Induction of emission ratio changes” value (LHGFR0N7C [3]) was “None” and the “normalized emission ratio of control biosensor expressed in E. coli” value (shortened to “normalized emission ratio … in E. coli”) ([4]; time 0 min) was 1.008 and 0.9954 and 0.9826 and 0.9922. For the same molecule, the “normalized emission ratio … in E. coli” value ([4]; time 5 min) was 1.009 and 0.9959 and 0.9842 and 0.997, the “normalized emission ratio … in E. coli” value ([4]; time 10 min) was 1.009 and 0.9912 and 0.9859 and 0.9988 and the “normalized emission ratio … in E. coli” value ([4]; time 15 min) was 1.011 and 0.9845 and 0.9854 and 0.993. For the same molecule, the “normalized emission ratio … in E. coli” value ([4]; time 20 min) was 1.001 (2×) and 0.9957 and 0.9921, the “normalized emission ratio … in E. coli” value ([4]; time 25 min) was 1.004 and 0.9829 and 0.99 and 1.01 and the “normalized emission ratio … in E. coli” value ([4]; time 30 min) was 1.003 and 0.9825 and 0.992 and 1.008. For the same molecule, the “normalized emission ratio … in E. coli” value ([4]; time 35 min) was 1.004 (2×) and 0.9933 and 1.0123, the “normalized emission ratio … in E. coli” value ([4]; time 40 min) was 1.001 and 1.002 and 0.9991 and 1.015 and the “normalized emission ratio … in E. coli” value ([4]; time 45 min) was 1.004 and 1.003 and 1.002 and 1.015. For the same molecule, the “normalized emission ratio … in E. coli” value ([4]; time 50 min) was 1.007 and 1.003 and 0.9994 and 1.015, the “normalized emission ratio … in E. coli” value ([4]; time 55 min) was 1.005 and 0.994 and 1.003 and 1.016 and the “normalized emission ratio … in E. coli” value ([4]; time 60 min) was 1.022 and 0.993 and 1.012 and 1.027. For the same molecule, the “normalized emission ratio … in E. coli” value ([4]; time 65 min) was 1.018 and 1.003 and 1.0048 and 1.024, the “normalized emission ratio … in E. coli” value ([4]; time 70 min) was 1.018 (2×) and 1.011 and 1.029 and the “normalized emission ratio … in E. coli” value ([4]; time 75 min) was 1.029 and 0.9995 and 1.018 and 1.031. The “normalized emission ratio … in E. coli” value ([4]; time 80 min) was 1.036 and 1.008 and 1.027 and 1.028, the “normalized emission ratio … in E. coli” value ([4]; time 85 min) was 1.027 and 1.007 and 1.024 and 1.023 and the “normalized emission ratio … in E. coli” value ([4]; time 90 min) was 1.042 and 1.01 and 1.0199 and 1.034. For the same molecule, the Emission ratio (LHGFR0N3C) was 1.395 and 1.399 and 1.404, the “Induction of emission ratio changes” value (LHGFR0N3C) was “None” and the Normalized emission ratio [5] was 0.9993 and 0.9933 and 0.9442.
